pIC50: −log10 of the molar value.
Molecular target: human PAD4 (hPAD4) (Homo sapiens, UniProt Q9UM07)
Assay: RFMS human PAD4 functional assay (rapid-fire mass spectrum)
Assay type: biochemical
Conditions: 5 nM hPAD4 enzyme, 250 μM BAEE, 50 μM Calcium; 30 min preincubation, 90 min reaction at 37° C.
How it was run: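 PAD4 (10 nM) preincubated 30 min with compound (top final 50 μM), then BAEE substrate added in pH 7.5 HEPES buffer with DTT, 50 μM calcium, TPEN; 90 min at 37° C. After TCA quench, citrulline derivatized with phenyl glyoxal (4 mM final, 30 min, 37° C) and quantified by RapidFire MS against internal standard.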

Chain of human PAD4 (hPAD4) (Q9UM07 whole entry): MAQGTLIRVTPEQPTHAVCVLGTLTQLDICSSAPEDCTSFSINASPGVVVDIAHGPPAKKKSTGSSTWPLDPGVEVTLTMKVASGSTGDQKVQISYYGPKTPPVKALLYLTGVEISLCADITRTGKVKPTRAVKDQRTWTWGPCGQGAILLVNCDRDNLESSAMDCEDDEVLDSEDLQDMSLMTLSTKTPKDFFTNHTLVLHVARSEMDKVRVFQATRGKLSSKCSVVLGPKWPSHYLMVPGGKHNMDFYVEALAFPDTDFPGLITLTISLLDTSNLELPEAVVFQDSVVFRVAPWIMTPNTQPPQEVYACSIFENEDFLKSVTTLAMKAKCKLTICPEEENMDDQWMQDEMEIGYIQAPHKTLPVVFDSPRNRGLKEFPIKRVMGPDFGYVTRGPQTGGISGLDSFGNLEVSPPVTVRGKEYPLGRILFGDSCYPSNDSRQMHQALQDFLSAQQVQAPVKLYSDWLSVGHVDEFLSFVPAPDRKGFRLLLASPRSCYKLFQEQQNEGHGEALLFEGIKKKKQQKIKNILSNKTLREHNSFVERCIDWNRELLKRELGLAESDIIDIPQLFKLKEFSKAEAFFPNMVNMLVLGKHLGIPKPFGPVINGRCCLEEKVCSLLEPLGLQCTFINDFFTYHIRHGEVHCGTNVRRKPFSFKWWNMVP

Row | SMILES | pIC50
1 | COc1cc(C(=O)N2C[C@H]3CC[C@@H]2[C@@H]3N)cc2nc(-c3cc4cccnc4n3CC3CC3)n(C3CN(c4cncnc4)C3)c12 [Example 76, (1R,4R,7R)-2-{2-[1-(cyclopropylmethyl)-1H-pyrrolo[2,3-b]pyridin-2-yl]-7-methoxy-1-[1-(pyrimidin-5-yl)azetidin-3-yl]-1H-1,3-benzodiazole-5-carbonyl}-2-azabicyclo[2.2.1]heptan-7-amine] | 6.53
2 | COc1cc(C(=O)N2CC3CCC2[C@@H]3N)cc2nc(-c3cc4cccnc4n3CC3CC3)n(C3CN(S(=O)(=O)c4ccc(Cl)nc4)C3)c12 (stereo partly shown) [Example 337] | 6.32
3 | COc1cc(C(=O)N2C[C@H]3CC[C@@H]2[C@@H]3N)cc2nc(-c3cc4ccccc4n3CC3CC3)n(CC3CN(C(=O)C4CCCC4)C3)c12 [Example 144, (1R,4R,7R)-2-{1-[(1-cyclopentanecarbonylazetidin-3-yl)methyl]-2-[1-(cyclopropylmethyl)-1H-indol-2-yl]-7-methoxy-1H-1,3-benzodiazole-5-carbonyl}-2-azabicyclo[2.2.1]heptan-7-amine] | 7.77
4 | COc1cc(C(=O)N2CC3CCC2[C@@H]3N)cc2nc(-c3cc4cccnc4n3CC3CC3)n(Cc3cnn(-c4ccc(F)cn4)c3)c12 (stereo partly drawn) [Example 371, (7R)-2-{2-[1-(cyclopropylmethyl)-1H-pyrrolo[2,3-b]pyridin-2-yl]-1-{[1-(5-fluoropyridin-2-yl)-1H-pyrazol-4-yl]methyl}-7-methoxy-1H-1,3-benzodiazole-5-carbonyl}-2-azabicyclo[2.2.1]heptan-7-amine] | 7.52
5 | COc1cc(C(=O)N2CC3CCC2[C@@H]3N)cc2nc(-c3cc4ccccc4n3CC3CC3)n(CC3CN(C(=O)c4ccc(C#N)cn4)C3)c12 (stereo partly drawn) [Example 435, 6-[3-({5-[(7R)-7-amino-2-azabicyclo[2.2.1]heptane-2-carobnyl]-2-[1-(cyclopropylmethyl)-1H-indol-2-yl]-7-methoxy-1H-1,3-benzodiazol-1-yl}methyl)azetidine-1-carobnyl]pyridine-3-carbonitrile] | 7.47
6 | COc1cc(C(=O)N2CC3CCC2[C@@H]3N)cc2nc(-c3cc4ccccc4n3CC3CC3)n(CC3CN(C(=O)c4ccn(C)c(=O)c4)C3)c12 (stereo partly drawn) [Example 433, 4-[3-({5-[(7R)-7-amino-2-azabicyclo[2.2.1]heptane-2-carbonyl]-2-[1-(cyclopropylmethyl)-1H-indol-2-yl]-7-methoxy-1H-1,3-benzodiazol-1-yl}methyl)azetidine-1-carbonyl]-1-methyl-1,2-dihydropyridin-2-one] | 7.51
7 | COc1cc(C(=O)N2C[C@H]3CC[C@@H]2[C@@H]3N)cc2nc(-c3cc4cc(Cl)ccc4n3C)n(CC3CN(c4cncc(C#N)c4)C3)c12 [Example 58, 5-[3-({5-[(1R,4R,7R)-7-amino-2-azabicyclo[2.2.1]heptane-2-carbonyl]-2-(5-chloro-1-methyl-1H-indol-2-yl)-7-methoxy-1H-1,3-benzodiazol-1-yl}methyl)azetidin-1-yl]pyridine-3-carbonitrile] | 6.77
8 | COc1cc(C(=O)N2CC(CN)C2)cc2nc(-c3cc4ccccc4n3CC3CC3)n(Cc3cnn(C)c3)c12 [Example 291, (1-{2-[1-(cyclopropylmethyl)-1H-indol-2-yl]-7-methoxy-1-[(1-methyl-1H-pyrazol-4-yl)methyl]-1H-1,3-benzodiazole-5-carbonyl}azetidin-3 yl)methanamine] | 5.72
9 | COc1cc(C(=O)N2CC3CCC2[C@@H]3N)cc2nc(-c3cc4ccccc4n3CC3CC3)n(CC3CCN(c4ncccn4)C3)c12 (stereo in doubt) [Example 228, (1R,4R,7R)-2-{2-[1-(cyclopropylmethyl)-1H-indol-2-yl]-7-methoxy-1-{[(3S)-1-(pyrimidin-2-yl)pyrrolidin-3-yl]methyl}-1H-1,3-benzodiazole-5-carbonyl}-2-azabicyclo[2.2.1]heptan-7-amine] | 7.00
10 | COc1cc(C(=O)N2C[C@H]3CC[C@@H]2[C@@H]3N)cc2nc(-c3cc4ccccc4n3C)n(CC3CN(c4cncc(C#N)c4)C3)c12 [Example 22, 5-[3-({5-[(1R,4R,7R)-7-amino-2-azabicyclo[2.2.1]heptane-2-carbonyl]-7-methoxy-2-(1-methyl-1H-indol-2-yl)-1H-1,3-benzodiazol-1-yl}methyl)azetidin-1-yl]pyridine-3-carbonitrile] | 7.22
11 | COc1cc(C(=O)N2CC3CCC2[C@@H]3N)cc2nc(-c3cc4ccccc4n3CC3CC3)n(CC3CN(C(=O)c4ccnc(C#N)c4)C3)c12 (stereo partly drawn) [Example 451, 4-[3-({5-[(7R)-7-amino-2-azabicyclo[2.2.1]heptane-2-carbonyl]-2-[1-(cyclopropylmethyl)-1H-indol-2-yl]-7-methoxy-1H-1,3-benzodiazol-1-yl}methyl)azetidine-1-carbonyl]pyridine-2-carbonitrile] | 7.33
12 | COc1cc(C(=O)N2CC3CCC2[C@@H]3N)cc2nc(-c3cc4ccccc4n3CC3CC3)n(CCc3cnn(C)c3)c12 (stereo partly drawn) [Example 511, (7R)-2-{2-[1-(cyclopropylmethyl)-1H-indol-2-yl]-7-methoxy-1-[2-(1-methyl-1H-pyrazol-4-yl)ethyl]-1H-l,3-benzodiazole-5-carbonyl}-2-azabicyclo[2.2.1]heptan-7-amine] | 6.47
13 | Cn1cc(Cn2c(-c3cc4cccnc4n3CC3CC3)nc3cc(C(=O)N4CC5CCC4[C@@H]5N)cc(Cl)c32)cn1 (stereo partly drawn) [Example 493, (7R)-2-{7-chloro-2-[1-(cyclopropylmethyl)-1H-pyrrolo[2,3-b]pyridin-2-yl]-1-[(1-methyl-1H-pyrazol-4-yl)methyl]-1H-1,3-benzodiazole-5-carbonyl}-2-azabicyclo[2.2.1]heptan-7-amine] | 7.08
14 | COc1cc(C(=O)N2CC3CCC2[C@@H]3N)cc2nc(-c3cc4cccnc4n3CC3CC3)n(Cc3cn(C)nc3C)c12 (stereo partly drawn) [Example 497, (7R)-2-{2-[1-(cyclopropylmethyl)-1H-pyrrolo[2,3-b]pyridin-2-yl]-1-[(1,3-dimethyl-1H-pyrazol-4-yl)methyl]-7-methoxy-1H-1,3-benzodiazole-5-carbonyl}-2-azabicyclo[2.2.1]heptan-7-amine] | 6.96
15 | N#Cc1ccc(C(=O)N2CC(Cn3c(-c4cc5ccccc5n4CC4CC4)nc4cc(C(=O)N5C[C@H]6CC[C@@H]5[C@@H]6N)cc(Cl)c43)C2)cc1 [Example 150, 4-[3-({5-[(1R,4R,7R)-7-amino-2-azabicyclo[2.2.1]heptane-2-carbonyl]-7-chloro-2-[1-(cyclopropylmethyl)-1H-indol-2-yl]-1H-1,3-benzodiazol-1-yl}methyl)azetidine-1-carbonyl]benzonitrile] | 7.70
16 | COc1cc(C(=O)N2C[C@H](N)C[C@@H](F)C2)cc2nc(-c3cc4cccnc4n3CC3CC3)n(Cc3cnn(C)c3)c12 [Example 250, ((3R,5R)-3-amino-5-fluoropiperidin-1-yl)(2-(1-(cyclopropylmethyl)-1H-pyrrolo[2,3-b]pyridin-2-yl)-7-methoxy-1-((1-methyl-1H-pyrazol-4-yl)methyl)-1H-benzo[d]imidazol-5-yl)methanone] | 7.05
17 | COc1cc(C(=O)N2C[C@H]3CC[C@@H]2[C@@H]3N)cc2nc(-c3cc4cccnc4n3CC3CC3)n(CC3CN(C(C)=O)C3)c12 [Example 187, 1-[3-({5-[(1R,4R,7R)-7-amino-2-azabicyclo[2.2.1]heptane-2-carbonyl]-2-[1-(cyclopropylmethyl)-1H-pyrrolo[2,3-b]pyridin-2-yl]-7-methoxy-1H-1,3-benzodiazol-1-yl}methyl)azetidin-1-yl]ethan-1-one] | 6.45
18 | COc1cc(C(=O)N2CC3CCC2[C@@H]3N)cc2nc(-c3cc4ccccc4n3CC3CC3)n(CC3CN(C(=O)C4CCC(F)(F)C4)C3)c12 (stereo partly drawn) [Example 139, (1R,4R,7R)-2-{2-[1-(cyclopropylmethyl)-1H-indol-2-yl]-1-{[1-(3,3-difluorocyclopentanecarbonyl)aze-tidin-3-yl]methyl}-7-methoxy-1H-1,3-benzodiazole-5-carbonyl}-2-azabicyclo[2.2.1]heptan-7-amine] | 7.92
19 | COc1cc(C(=O)N2C[C@H](N)C[C@@H](F)C2)cc2nc(-c3cc4cccnc4n3CC3CC3)n(Cc3cnn(-c4cccc(F)n4)c3)c12 [Example 344, (3R,5R)-1-{2-[1-(cyclopropylmethyl)-1H-pyrrolo[2,3-b]pyridin-2-yl]-1-{[1-(6-fluoropyridin-2-yl)-1H-pyrazol-4-yl]methyl}-7-methoxy-1H-1,3-benzodiazole-5-carbonyl}-5-fluoropiperidin-3-amine] | 7.41
20 | COc1cc(C(=O)N2CC3CCC2[C@@H]3N)cc2nc(-c3cc4cccnc4n3CC3CC3)n(C3CCN(C(=O)c4ccnc(Cl)c4)CC3)c12 (stereo partly drawn) [Example 239, (1R,4R.,7R)-2-{1-[1-(2-chloropyridine-4-carbonyl)piperidin-4-yl]-2-[1-(cyclopropylmethyl)-1H-pyrrolo[2,3-b]pyridin-2-yl]-7-methoxy-1H-1,3-benzodiazole-5-carbonyl}-2-azabicyclo[2.2.1]heptan-7-amine] | 6.03
21 | COc1ncccc1-n1cc(Cn2c(-c3cc4cccnc4n3CC3CC3)nc3cc(C(=O)N4C[C@H](N)C[C@@H](F)C4)cc(OC)c32)cn1 [Example 343, (3R,5R)-1-{2-[1-(cyclopropylmethyl)-1H-pyrrolo[2,3-b]pyridin-2-yl]-7-methoxy-1-{[1-(2-methoxypyridin-3-yl)-1H-pyrazol-4-yl]methyl}-1H-1,3-benzodiazole-5-carbonyl}-5-fluoropiperidin-3-amine] | 6.94
22 | COc1cc(C(=O)N2CC3CCC2[C@@H]3N)cc2nc(-c3cc4ccccc4n3CC3CC3)n(CC3CN(C(=O)c4cc(C)nc(C)c4)C3)c12 (stereo partly drawn) [Example 418, (7R)-2-{2-[1-(cyclopropylmethyl)-1H-indol-2-yl]-1-{[1-(2,6-dimethylpyridine-4-carbonyl)azetidin-3-yl]methyl}-7-methoxy-1H-1,3-benzodiazole-5-carbonyl}-2-azabicyclo[2.2.1]heptan-7-amine] | 7.85
